Measured values published in patent US11298363B2, “Triazolobenzazepines as vasopressin V1a receptor antagonists” (RICHTER GEDEON NYRT., priority 2017, dated 2022).

What was measured:
[1] = molecular target: T1, human vasopressin V1a receptor (Homo sapiens, UniProt P37288); test: Functional assay on human vasopressin V1a receptor expressing cell line (intracellular Ca2+ fluorescence); assay type: cell-based; settings: 1321N1 cells, (Arg8)-vasopressin at EC80; read-out: IC50 (nM) on hV1a cell line
[2] = molecular target: T1, human vasopressin V1a receptor; test: Human vasopressin V1a receptor binding assay; settings: 1321N1 cell membranes, [3H]vasopressin; read-out: Ki (nM) on hV1a cell line
Procedure, shortened: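 Radioligand competition on membranes from cells expressing human V1a receptor; incubation 60 minutes at 27° C., non-specific binding with 1.2×10^−6 M unlabeled (Arg^8)-vasopressin, filtration separation. Ki by Cheng-Prusoff using Scatchard-derived KD, from at least two independent experiments.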

[3] = molecular target: human vasopressin V2 receptor (Homo sapiens, UniProt P30518); test: Human vasopressin V2 receptor binding assay on 1321N1 cell line; settings: 1321N1 cell line; read-out: Ki on hV2 1321N1 cell line
Protocol: Human Vasopressin V2 Receptor Binding Assay Cells and Radioligand
To determine the final affinity value, the results of at least two independent experiments were taken into account.
Non-specific binding values were determined in the presence of an unlabeled 1.2×10^−6 M (Arg^8)-vasopressin. Samples were incubated in a total volume of 0.55 ml for 90 minutes at 27° C. Membrane-bound and free ligands were separated by filtration through a 0.5% polyethyleneimine-impregnated UniFilter® GF/B™. After drying the filter plates, 40 μl Microscint-20 (Packard) scintillation cocktail was added to the samples. Finally, radioactivity was measured using MicroBeta^2 Microplate Counter (Perkin Elmer).
The radioligand displacement ability of a substance is determined in at least two independent experiments. Specific radioligand binding can be defined as the difference between total and non-specific binding in the presence of a saturation amount of the unlabeled ligand or different concentrations of the substance to be tested. The results are given as a percentage of inhibition of the specific binding achieved in the presence of the substance to be tested.
During fitting, the asymptotes are not fixed. The Ki values (inhibition constant) are given with Cheng-Prusoff equation Ki=IC50/[1+(L/KD)] wherein [L] is the radioligand concentration used in the experiment and [KD] is the affinity of the radioactively labelled ligand for the given receptor. The KD is determined beforehand using the Scatchard curve.

[4] = molecular target: mouse V1a receptor (Mus musculus, UniProt Q62463); test: Functional V1a in vivo test: inhibition of oxytocin-induced scratching behaviour; settings: mice, 10 mg/kg p.o. pretreatment
Protocol: Functional V1a In Vivo Test
Male mice (NMRI, ToxiCoop) weighing 18-40 g were used. Animals were kept at least 5 days after delivery, during housing and measurements they were fed and drink ad libitum. The experiments were permitted by the Local Animal Protection Committee and carried out in accordance with the European Animal Protection Directives (EU Directive 2010/63/EU).
Animal behaviour was measured by an automated behavioral analysis system (LABORAS™). The sensors located below platforms detect the mechanical vibration generated by the movement of animal, and transform into an electrical signal (Quinn et al., J Neurosci Methods 2003, 130:83-92). After analyzing signals, the system analyzes the time spent with the following behavioral parameters: locomotion, immobility, climbing, grooming. The grooming algorithm by definition is able to measure the scratching behavioral response. During the experiment, mice were pretreated with the test substance or vehicle, and after the pretreatment period scratching-inducing compound (s.c. 0.3 mg/kg oxytocin) was administered, and then the animals were individually placed into measuring cages. […] To reduce the exploratory activity, the animals were measured after a 1-hour habituation to the cage. The behavioural parameters were compared to the parallel measured parameters of the control animals.
The behavioural inhibitory effect of the substances was calculated with average values of parallel measured vehicle treated groups and presented as the percentage of inhibition: 0% was expressed as average value of scratching behaviour of vehicle pretreated animals (and phys. saline s.c. pretreated with vehicle), while 100% was expressed as average value of scratching of vehicle pretreated animals that received oxytocin subcutaneously. For statistical analysis one-way analysis of variance (ANOVA) with Tukey post hoc test were used.

T1 sequence (P37288 whole entry): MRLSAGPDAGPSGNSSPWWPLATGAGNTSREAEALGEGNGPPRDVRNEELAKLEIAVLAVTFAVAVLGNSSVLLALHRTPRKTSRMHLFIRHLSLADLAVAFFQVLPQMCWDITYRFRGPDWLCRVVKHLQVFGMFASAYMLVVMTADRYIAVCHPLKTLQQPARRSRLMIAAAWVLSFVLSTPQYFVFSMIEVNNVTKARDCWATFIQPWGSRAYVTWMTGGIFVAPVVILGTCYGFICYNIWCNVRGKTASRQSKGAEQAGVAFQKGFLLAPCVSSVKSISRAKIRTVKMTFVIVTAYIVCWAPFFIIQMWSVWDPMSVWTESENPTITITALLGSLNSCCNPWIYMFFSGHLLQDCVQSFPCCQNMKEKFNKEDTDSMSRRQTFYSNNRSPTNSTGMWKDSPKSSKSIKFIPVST
Chain of mouse V1a receptor (Q62463 whole entry): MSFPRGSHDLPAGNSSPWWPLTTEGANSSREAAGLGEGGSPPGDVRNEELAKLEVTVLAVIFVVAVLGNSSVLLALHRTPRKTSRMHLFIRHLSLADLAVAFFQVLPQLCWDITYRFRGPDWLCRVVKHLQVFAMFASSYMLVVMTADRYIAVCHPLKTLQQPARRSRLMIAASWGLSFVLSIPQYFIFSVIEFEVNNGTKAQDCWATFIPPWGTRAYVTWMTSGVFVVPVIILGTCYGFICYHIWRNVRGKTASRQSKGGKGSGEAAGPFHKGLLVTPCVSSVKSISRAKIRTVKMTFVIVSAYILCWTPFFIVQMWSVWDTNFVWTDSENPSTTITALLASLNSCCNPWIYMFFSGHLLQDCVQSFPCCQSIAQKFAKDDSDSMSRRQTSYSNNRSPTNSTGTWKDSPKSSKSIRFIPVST
Chain of human vasopressin V2 receptor (P30518 whole entry): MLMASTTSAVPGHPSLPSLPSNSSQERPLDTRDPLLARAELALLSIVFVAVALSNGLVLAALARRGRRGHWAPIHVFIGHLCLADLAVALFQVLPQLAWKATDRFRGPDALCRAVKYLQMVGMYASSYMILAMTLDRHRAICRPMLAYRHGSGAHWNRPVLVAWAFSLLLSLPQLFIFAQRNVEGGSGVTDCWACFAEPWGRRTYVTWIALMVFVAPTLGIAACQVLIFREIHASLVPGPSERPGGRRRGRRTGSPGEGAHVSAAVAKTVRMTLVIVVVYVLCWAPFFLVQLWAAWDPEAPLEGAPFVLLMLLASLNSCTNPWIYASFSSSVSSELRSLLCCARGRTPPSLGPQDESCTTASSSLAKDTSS

| IC50 [1] [nM] | Ki [2] [nM] | Ki [3] [nM] | inhibition (%) of oxytocin-induced scratching behaviour response [4] [%] | SMILES |
| --- | --- | --- | --- | --- |
| 1 | 0.7 | 365 | – | CN(C)S(=O)(=O)NC1Cc2cc(Cl)ccc2-n2c(nnc2[C@H]2CC[C@H](Oc3ccccn3)CC2)C1 (stereo partly drawn) [Example 20, N′-{8-chloro-1-[trans-4-(pyridin-2-yloxy)cyclohexyl]-5,6-dihydro-4H-[1,2,4]triazolo[4,3-a][1]benzazepin-5-yl}-N,N-dimethylsulfamide] |
| 1.6 | 0.5 | 255 | – | CS(=O)(=O)NC1Cc2cc(Cl)ccc2-n2c(nnc2[C@H]2CC[C@H](Oc3ccccn3)CC2)C1 (stereo partly drawn) [Example 18, N-{8-chloro-1-[trans-4-(pyridin-2-yloxy)cyclohexyl]-5,6-dihydro-4H-[1,2,4]triazolo[4,3-a][1]benzazepin-5-yl}methanesulfonamide] |
| 0.6 | 0.2 | – | 67 | CO[C@@H]1Cc2cc(Cl)ccc2-n2c(nnc2[C@H]2CC[C@H](Oc3ccccn3)CC2)C1 (single isomer, unassigned) [Example 104] |
| 9 | 0.8 | – | 34 | NCC(=O)N[C@@H]1Cc2cc(Cl)ccc2-n2c(nnc2[C@H]2CC[C@H](Oc3ccccn3)CC2)C1 [Example 12, N-{(5R)-8-chloro-1-[trans-4-(pyridin-2-yloxy)cyclohexyl]-5,6-dihydro-4H-[1,2,4]triazolo[4,3-a][1]benzazepin-5-yl}glycinamide] |
| 2.5 | 0.4 | – | 41 | FC(F)(F)[C@H]1CC[C@H](c2nnc3n2-c2ccc(Cl)cc2CC2(C3)OCCO2)CC1 [Example 61, 8′-chloro-1′-[trans-4-(trifluoromethyl)cyclohexyl]-4′H,6′H-spiro[1,3-dioxolane-2,5′-[1,2,4]triazolo[4,3-a][1]benzazepine]] |
| 6.4 | 1 | – | 75 | CCNC1Cc2cc(Cl)ccc2-n2c(nnc2[C@H]2CC[C@H](Oc3ccccn3)CC2)C1 (stereo partly drawn) [Example 23, 8-chloro-N-ethyl-1-[trans-4-(pyridin-2-yloxy)cyclohexyl]-5,6-dihydro-4H-[1,2,4]triazolo[4,3-a][1]benzazepine-5-amine] |
| 2.7 | 0.2 | – | 66 | CO[C@]1(C)CC[C@H](c2nnc3n2-c2ccc(Cl)cc2CC2(C3)OCCCO2)CC1 [Example 205, 8′-chloro-1′-(cis-4-methoxy-4-methylcyclohexyl)-4′,6′H-spiro[1,3-dioxane-2,5′-[1,2,4]triazolo[4,3-a][1]benzazepine]] |
| 0.9 | 0.2 | – | 41 | CO[C@]1(C)CC[C@@H](c2nnc3n2-c2ccc(Cl)cc2CC2(C3)OCCO2)CC1 [Example 198, 8′-chloro-1′-(trans-4-methoxy-4-methylcyclohexyl)-4′H,6′H-spiro[1,3-dioxolane-2,5′-[1,2,4]triazolo[4,3-a][1]benzazepine]] |
| 1.3 | 0.2 | – | 105 | CN(C)[C@@H]1Cc2cc(Cl)ccc2-n2c(nnc2[C@H]2CC[C@H](Oc3ccccn3)CC2)C1 [Example 101, (5R)-8-chloro-N,N-dimethyl-1-[trans-4-(pyridin-2-yloxy)cyclohexyl]-5,6-dihydro-4H-[1,2,4]triazolo[4,3-a][1]benzazepin-5-amine] |
| 1.5 | 0.2 | – | 96 | CN[C@@H]1Cc2cc(Cl)ccc2-n2c(nnc2[C@H]2CC[C@H](Oc3ccccn3)CC2)C1 [Example 100, (5R)-8-chloro-N-methyl-1-[trans-4-(pyridin-2-yloxy)cyclohexyl]-5,6-dihydro-4H-[1,2,4]triazolo[4,3-a][1]benzazepin-5-amine] |
| 1.8 | 0.6 | – | 43 | O=C(N[C@@H]1Cc2cc(Cl)ccc2-n2c(nnc2[C@H]2CC[C@H](Oc3ccccn3)CC2)C1)C1CC1 [Example 126, N-{(5R)-8-chloro-1-[trans-4-(pyridin-2-yloxy)cyclohexyl]-5,6-dihydro-4H-[1,2,4]triazolo[4,3-a][1]benzazepin-5-yl}cyclopropanecarboxamide] |
| 45 | 2 | – | 40 | CN(C)CCOC1Cc2cc(Cl)ccc2-n2c(nnc2[C@H]2CC[C@H](Oc3ccccn3)CC2)C1 (stereo partly drawn) [Example 60, 2-({8-chloro-1-[trans-4-(pyridin-2-yloxy)cyclohexyl]-5,6-dihydro-4H-[1,2,4]triazolo[4,3-a][1]benzazepin-5-yl}oxy)-N,N-dimethylethanamine] |
| 2.5 | 0.3 | – | 60 | CCN[C@@H]1Cc2cc(Cl)ccc2-n2c(nnc2[C@H]2CC[C@H](Oc3ccccn3)CC2)C1 [Example 99, (5R)-8-chloro-N-ethyl-1-[trans-4-(pyridin-2-yloxy)cyclohexyl]-5,6-dihydro-4H-[1,2,4]triazolo[4,3-a][1]benzazepin-5-amine] |
| 2.2 | 0.8 | – | 76 | N#Cc1ccc2c(c1)CC1(Cc3nnc([C@H]4CC[C@H](Oc5ccccn5)CC4)n3-2)OCCO1 [Example 66, 1′-[trans-4-(pyridin-2-yloxy)cyclohexyl]-4′H,6′H-spiro[1,3-dioxolane-2,5′-[1,2,4]triazolo[4,3-a][1]benzazepine]-8′-carbonitrile] |
| 1.4 | 0.3 | – | 96 | COC1Cc2cc(Cl)ccc2-n2c(nnc2[C@H]2CC[C@H](Oc3ccccn3)CC2)C1 (mixture of isomers) [Example 58, 8-chloro-5-methoxy-1-[trans-4-(pyridin-2-yloxy)cyclohexyl]-5,6-dihydro-4H-[1,2,4]triazolo[4,3-a][1]benzazepine] |
| 0.5 | 0.1 | – | 108 | Clc1ccc2c(c1)CC1(Cc3nnc(N4CCC(Oc5ccccn5)CC4)n3-2)OCCO1 [Example 157, 8′-chloro-1′-[4-(pyridin-2-yloxy)piperidin-1-yl]-4′H,6′H-spiro[1,3-dioxolane-2,5′-[1,2,4]triazolo[4,3-a][1]benzazepine]] |
| 1.2 | 0.3 | – | 92 | O[C@H]1Cc2cc(Cl)ccc2-n2c(nnc2[C@H]2CC[C@H](Oc3ccccn3)CC2)C1 [Example 56, (5S)-8-chloro-1-[trans-4-(pyridin-2-yloxy)cyclohexyl]-5,6-dihydro-4H-[1,2,4]triazolo[4,3-a][1]benzazepin-5-ol] |
| 1.9 | 0.4 | – | 50 | FC(F)(F)[C@H]1CC[C@H](c2nnc3n2-c2ccc(Cl)cc2CC2(C3)OCCCO2)CC1 [Example 89, 8′-chloro-1′-[trans-4-(trifluoromethyl)cyclohexyl]-4′H,6′H-spiro[[1,3]dioxane-2,5′-[1,2,4]triazolo[4,3-a][1]benzazepine]] |
| 0.7 | 0.2 | – | 71 | CO[C@H]1Cc2cc(Cl)ccc2-n2c(nnc2[C@H]2CC[C@H](Oc3ccccn3)CC2)C1 (single isomer, unassigned) [Example 103] |
| 2.6 | 4 | – | 30 | COC1Cc2cc(Cl)ccc2-n2c(nnc2[C@H]2CC[C@H](C(F)(F)F)CC2)C1 (mixture of isomers) [Example 74, 8-chloro-5-methoxy-1-[trans-4-(trifluoromethyl)cyclohexyl]-5,6-dihydro-4H-[1,2,4]triazolo[4,3-a][1]benzazepine] |
